Assay results taken from patent US20050112573A1, “Method of detecting toxic substance” (priority 2001, published 2005).

System: yeast genes (level of expressed mRNA)
Experiment: DNA chip analysis of expressed mRNA of yeast genes after 2 h culture with a toxic chemical substance
Type: cell-based, Saccharomyces cerevisiae S288C
Protocol: Yeast (Saccharomyces cerevtisiae S288C (α SUC2mal mel gap2 CUP1)) were cultured at 25° C. on YPD medium (yeast extract 1%, polypepton 2%, glucose 2%). One of toxic chemical substances was added to the cell at logarithmic growth phase, and the cell was further cultured for two hours. Cell was cultured without any chemical substance in the same condition, and was used as control. Concentrations of the chemical substances were defined to inhibit the growth of the yeast but not lead to death.
After the completion of cultivation, the culture was centrifuged to collect the cells. To the cells, sodium acetate buffer (50 mM sodium acetate, 10 mM EDTA, 1% SDS) was added, and the mixture was shaken at 65° C. for five minutes, followed by returning to room temperature, and obtaining the supernatant, which procedure was repeated two times. To the supernatant, ½ amount of a solution of phenol/chloroform was added, and the mixture was centrifuged to give a supernatant, which was added with an equal amount of chloroform, and the mixture was centrifuged to give a supernatant. To the supernatant, an equal amount of isopropanol containing 0.3 M sodium acetate was added, and the mixture was allowed to stand at room temperature for 30 minutes, after which the mixture was centrifuged to give a sediment of the whole RNAs. Seventy % ethanol was added to the sediment, and the mixture was again centrifuged to give a sediment, which was then dried and dissolved in water. mRNA was isolated from the whole RNAs as followings. In view of the fact that a poly A chain is attached to the 3′ terminus of mRNA, a polynucleotide having a poly T structure which was immobilized on the surface of latex beads was used to trap the mRNA, and then the mRNA was washed and eluted with spine column (Oligotex-dT30<Super>mRNA Purification Kit, Takara). Reverse transcription of the mRNA was conducted with a reverse transcriptase (Super Script II Reverse Transcriptase; catalogue No. 18064-014, GibcoBRL) using fluorescence-labeled nucleotides to give cDNAs that were introduced with Cy3-dUTP or Cy5-dUTP during the reverse transcription.
The labeled cDNAs were dissolved in TE buffer (10 mM Tris-HCl/1 mM EDTA, pH8.0), and the solution was dropped on the DNA chip containing the whole genes of yeast (DNA Chip Research Inc. Japan) so that the cDNAs were hybridized on the DNA chip at 65° C. for over 12 hours. The fluoresces intensity of the DNA chip was read with a scanner, and the ratio relative to the fluorescence intensity resulting from the absence of chemical substance was estimated as the following, which is shown in Tables 1 to 9: [formula]
In the Tables, “Intensity” indicated in the rightmost column is a value of the level of expressed mRNA of each gene in control cells as divided by the average level of the expressions of the whole genes.

In the case of `COc1cc(CNC(=O)CCCCC=CC(C)C)ccc1O` [(12), 8-methyl-N-vanillyl-6-nonenamide], the “level of expressed mRNA in the presence of chemical substance/in its absence” value (from here on “level … of chemical substance/in its absence”) (gene YAL012W) is reported as 1.1, the “The level of expressed mRNA in the presence of chemical substance/absence: YAL014C” value (gene YAL014C) is reported as 1.2 and the “The level of expressed mRNA in the presence of chemical substance/absence: YAL017W” value (gene YAL017W) is reported as 1.0. The “The level of expressed mRNA in the presence of chemical substance/absence: YAL018C” value (gene YAL018C) was 0.9, the “level … of chemical substance/in its absence” value (gene YAL038W) was 1.2 and the “level … of chemical substance/in its absence” value (gene YAL044C) was 0.6. For the same compound, the “The level of expressed mRNA in the presence of chemical substance/absence: YAL049C” value (gene YAL049C) was 1.1, the “level … of chemical substance/in its absence” value (gene YAL054C) was 1.0 and the “The level of expressed mRNA in the presence of chemical substance/absence: YAR047C” value (gene YAR047C) was 0.9. For the same compound, the “The level of expressed mRNA in the presence of chemical substance/absence: YAR064W” value (gene YAR064W) was 0.8, the “level … of chemical substance/in its absence” value (gene YAR071W) was 2.0 and the “level … of chemical substance/in its absence” value (gene YBL001C) was 0.7. The “The level of expressed mRNA in the presence of chemical substance/absence: YBL044W” value (gene YBL044W) was 0.9, the “The level of expressed mRNA in the presence of chemical substance/absence: YBL100C” value (gene YBL100C) was 0.7 and the “The level of expressed mRNA in the presence of chemical substance/absence: YBR012C” value (gene YBR012C) was 1.0. The “The level of expressed mRNA in the presence of chemical substance/absence: YBR013C” value (gene YBR013C) was 1.2, the “level … of chemical substance/in its absence” value (gene YBR014C) was 0.6 and the “level … of chemical substance/in its absence” value (gene YBR023C) was 0.8. For the same compound, the “level … of chemical substance/in its absence” value (gene YBR029C) was 1.3, the “level … of chemical substance/in its absence” value (gene YBR035C) was 1.2 and the “level … of chemical substance/in its absence” value (gene YBR050C) was 1.0. For the same compound, the “The level of expressed mRNA in the presence of chemical substance/absence: YBR051W” value (gene YBR051W) was 0.7, the “The level of expressed mRNA in the presence of chemical substance/absence: YBR063C” value (gene YBR063C) was 1.1 and the “The level of expressed mRNA in the presence of chemical substance/absence: YBR066C” value (gene YBR066C) was 0.7. The “level … of chemical substance/in its absence” value (gene YBR068C) was 0.8, the “level … of chemical substance/in its absence” value (gene YBR111C) was 1.2 and the “The level of expressed mRNA in the presence of chemical substance/absence: YBR124W” value (gene YBR124W) was 0.9. The “The level of expressed mRNA in the presence of chemical substance/absence: YBR129C” value (gene YBR129C) was 1.0, the “level … of chemical substance/in its absence” value (gene YBR145W) was 1.0 and the “The level of expressed mRNA in the presence of chemical substance/absence: YBR162C” value (gene YBR162C) was 0.7. The “level … of chemical substance/in its absence” value (gene YBR183W) was 1.2, the “level … of chemical substance/in its absence” value (gene YBR222C) was 0.9 and the “The level of expressed mRNA in the presence of chemical substance/absence: YBR255W” value (gene YBR255W) was 0.7. For the same compound, the “The level of expressed mRNA in the presence of chemical substance/absence: YBR281C” value (gene YBR281C) was 0.5, the “The level of expressed mRNA in the presence of chemical substance/absence: YBR287W” value (gene YBR287W) was 1.2 and the “level … of chemical substance/in its absence” value (gene YBR299W) was 1.2. For the same compound, the “level … of chemical substance/in its absence” value (gene YCL009C) was 1.7, the “The level of expressed mRNA in the presence of chemical substance/absence: YCL044C” value (gene YCL044C) was 0.9 and the “The level of expressed mRNA in the presence of chemical substance/absence: YCL056C” value (gene YCL056C) was 1.0. For the same compound, the “level … of chemical substance/in its absence” value (gene YCL064C) was 0.7, the “The level of expressed mRNA in the presence of chemical substance/absence: YCR007C” value (gene YCR007C) was 0.8 and the “level … of chemical substance/in its absence” value (gene YCR037C) was 0.7. The “level … of chemical substance/in its absence” value (gene YCR048W) was 0.9, the “level … of chemical substance/in its absence” value (gene YCR098C) was 1.3 and the “level … of chemical substance/in its absence” value (gene YDL022W) was 1.2. The “The level of expressed mRNA in the presence of chemical substance/absence: YDL046W” value (gene YDL046W) was 1.0, the “The level of expressed mRNA in the presence of chemical substance/absence: YDL089W” value (gene YDL089W) was 0.9 and the “The level of expressed mRNA in the presence of chemical substance/absence: YDL173W” value (gene YDL173W) was 1.1. For the same compound, the “The level of expressed mRNA in the presence of chemical substance/absence: YDL193W” value (gene YDL193W) was 1.1, the “The level of expressed mRNA in the presence of chemical substance/absence: YDL233W” value (gene YDL233W) was 0.9 and the “level … of chemical substance/in its absence” value (gene YDR009W) was 1.0. The “level … of chemical substance/in its absence” value (gene YDR019C) was 0.7, the “The level of expressed mRNA in the presence of chemical substance/absence: YDR071C” value (gene YDR071C) was 0.9 and the “The level of expressed mRNA in the presence of chemical substance/absence: YDR078C” value (gene YDR078C) was 0.7. For the same compound, the “The level of expressed mRNA in the presence of chemical substance/absence: YDR090C” value (gene YDR090C) was 0.6, the “The level of expressed mRNA in the presence of chemical substance/absence: YDR109C” value (gene YDR109C) was 1.0 and the “The level of expressed mRNA in the presence of chemical substance/absence: YDR128W” value (gene YDR128W) was 0.6.
